Reference: US6399088B1, “Citric acid tri-alkylamide surfactants” (Air Products and Chemicals, Inc., priority 2000, dated 2002)
Marks after values point to notes of the source that are not given here.

Assays:
Assay type in all cases: physicochemical
[1] = Foam test based upon ASTM D 1173-53; conditions: 0.1 wt % solution; for initial foam: foam height at completion of addition
Experimental: The foaming properties of a 0.1 wt % solutions of the tri-alkylcitramides (N,N′,N″-tri-n-propylcitramide, N, N′, N″-tri-n-butylcitramide, N, N′, N″-tri-iso-butylcitramide and N,N′,N″-tri-iso-amylcitramide) were examined using a procedure based upon ASTM D 1173-53. In this test, a 0.1 wt % solution of the citramide surfactant was added from an elevated glass pipette to a receiver containing the same solution. The foam height was measured at the completion of the addition (“Initial Foam Height”) and the time required for the foam to dissipate at the air-liquid interface (“Time to 0 Foam”) was recorded. This test provided a comparison between the foaming characteristics of the various citramides. In general, in coatings, inks, adhesives, agricultural and electronics cleaning formulations, foam is undesirable because it complicates handling and can lead to coating and print defects, and to inefficient application of materials.

[2] = Dynamic surface tension of aqueous solutions, maximum-bubble pressure method; conditions: for γ (0.1 wt % solution) (1 b/s) / γ (0.1 wt % solution) (6 b/s): 0.1 wt % solution in water
Experimental: Solutions of the citramides of Examples 1-4 in distilled water were prepared. Dynamic surface tension data were obtained using the maximum-bubble pressure method at bubble rates from 0.1 bubbles/second (b/s) to 20 b/s as described in Langmuir 1986, 2, 428-432. […] In practical terms, high bubble rates correspond to high printing speeds in lithographic printing, high spray or roller velocities in coating applications, rapid application rates for agricultural products and electronics cleaning and processing.
(§1) The solubility limits of Examples 6 and 7 were determined by intersection of the linear portion of a surface tension/In (concentration) curve with the limiting surface tension as is described in many textbooks. Since Example 8 contained insoluble material at 0.005 wt %, the solubility limit is reported as <0.005 wt %. Also, the solubility limit of ˜10 wt % reported for Example 1 is the lowest concentration at which a significant amount of insoluble material was seen. The relative efficiency of surfactants can be obtained by comparing surface tension reduction of solutions containing the same amount of different surfactants. Such data is given for 0.1 wt % solutions of the tri-alkylcitramides at 1.0 and 6.0 b/s. The limiting surface tensions at 0.1, 1, 6 and 20 b/s represent the lowest surface tensions in water which can be achieved at the given surface creation rates for a given surfactant regardless of the amount of surfactant used and is used to evaluate the effectiveness of a surfactant. These values give information about the relative ability of a surfactant to reduce surface defects under near-equilibrium conditions (0.1 b/s) through very dynamic conditions (20 b/s). Lower surface tensions would allow the elimination of defects upon application of a formulation onto lower energy surfaces.

[3] = Solubility limit in water
Experimental: as §1

[4] = limiting surface tension in water, 0.1 bubbles/second
[5] = limiting surface tension in water, 1 bubble/second
[6] = limiting surface tension in water, 6 bubbles/second
[7] = limiting surface tension in water, 20 bubbles/second
[8] = in water, from observed insoluble material

time to zero foam [1] [s]	initial foam [1] [cm]	γ (0.1 wt % solution) (1 b/s) ([2]; 1 b/s) [Dyne/cm]	γ (0.1 wt % solution) (6 b/s) ([2]; 6 b/s) [Dyne/cm]	γ limiting (0.1 b/s) [2, 4] [Dyne/cm]	γ limiting (1 b/s) [2, 5] [Dyne/cm]	γ limiting (6 b/s) [2, 6] [Dyne/cm]	γ limiting (20 b/s) [2, 7] [Dyne/cm]	relative solubility in water ([3]; in comparison to N,N′,N″-tri-iso-butylcitramide)	solubility limit ([3]; in distilled water)	solubility limit [3, 8] [wt %]	dynamic surface tension (0.1 b/s) ([2]; added to water at 5 wt %, material remained undissolved, 0.1 b/s) [dyne/cm]	dynamic surface tension (1 b/s) ([2]; added to water at 5 wt %, material remained undissolved, 1 b/s) [dyne/cm]	dynamic surface tension (6 b/s) ([2]; added to water at 5 wt %, material remained undissolved, 6 b/s) [dyne/cm]	dynamic surface tension (20 b/s) ([2]; added to water at 5 wt %, material remained undissolved, 20 b/s) [dyne/cm]	γ limiting (0.1 b/s) ([2]; limiting γ at 0.005 wt. % surfactant, 0.1 b/s)	γ limiting (1 b/s) ([2]; limiting γ at 0.005 wt. % surfactant, 1 b/s)	γ limiting (6 b/s) ([2]; limiting γ at 0.005 wt. % surfactant, 6 b/s)	γ limiting (20 b/s) ([2]; limiting γ at 0.005 wt. % surfactant, 20 b/s)	Compound
9	1.3	51.2	52.6	43.6	43.9	44.6	46.2	more soluble	0.4 Weight %										CCCCNC(=O)CC(O)(CC(=O)NCCCC)C(=O)NCCCC [Example 2, N,N′,N″-tri-n-butylcitramide]
10	1.0	51.8	52.5	46.6	46.8	47.3	48.4		0.2 Weight %										CC(C)CNC(=O)CC(O)(CC(=O)NCC(C)C)C(=O)NCC(C)C [Example 3, N,N′,N″-tri-iso-butylcitramide]
10	2.8	66.7	67.2	42.9	43.1	43.7	44.9		˜10 Weight %	~10									CCCNC(=O)CC(O)(CC(=O)NCCC)C(=O)NCCC [Example 1, N,N′,N″-tri-n-propylcitramide]
2	1.3	63.3	66.6						<0.005 Weight %	< 0.005	45.7	45.9	46.4	47.4	51.6^c Dyne/cm	62.6^c Dyne/cm	67.0^c Dyne/cm	71.4^c Dyne/cm	CC(C)CCNC(=O)CC(O)(CC(=O)NCCC(C)C)C(=O)NCCC(C)C [Example 4, N,N′,N″-tri-iso-amylcitramide]
